Assay [1] relates to heparan sulfate (HS) of RFPEC glycocalyx. In words: HS expression (coverage) in RFPEC glycocalyx by immunofluorescence confocal microscopy (Example 1). It is filed as cell-based, rat. As for the experimental part: (§1) Cell Culture. Rat fat pad ECs (RFPEC) at passages 20 to 39 were offspring of cells isolated from rat epididymal fat pad and provided by Dr. Mia Thi of Albert Einstein College of Medicine (Bronx, N.Y.). […] The RFPECs are immortalized, making it possible to use late passages. RFPEC were seeded on 12-14-mm diameter and 0.13-0.17-mm thick glass coverslips at a seeding density of 15,000-20,000 cells/cm^2. Cells were cultured in Dulbecco's Modified Eagle Medium (DMEM, Invitrogen, USA) with 1% penicillin-streptomycin (PS) and 10% fetal bovine serum (FBS, Gibco Life Technologies). Cells were maintained in humidity at 37° C. and 5% CO2. RFPECs reached full confluence in 3 days.
(§2) Cultured RFPECs produce thick and robust GCX in this time period. At 3 days post-seeding the RFPECs' culture medium was supplemented with 1% BSA in place of FBS to stabilize the GCX during preservation and immunolabeling (described below). For enzyme treatment experiments, 25 micro-international units per milliliter (μIU/ml) of heparinase III (Hep III; IBEX, Canada) were added to BSA-containing culture media for 2 hours to degrade HS from the GCX [46]. HepIII was washed out, and the wash-out was followed by a 16-hour incubation of RFPECs in regular BSA-containing media. In self-recovery experiments, RFPEC GCX was left to recover for 24 hours after enzyme degradation. The time frame was chosen in accordance with the 20-hour time period that is required for HS restoration to occur on the surface of ECs. For HS recovery experiments, exogenous HS and/or S1P were applied for 16 hours to accommodate the communication test as an assessment of functional glycocalyx recovery. […] After HS was degraded with HepIII, it was replaced by a 16-hour feeding of RFPECs with 59 μg/ml exogenous porcine mucosal HS (Celsus, Cincinnati, Ohio), based on published serum concentration of HS [43]. In sphingosine-1-phosphate experiments, culture media containing enzyme was substituted for media containing either 10 μM of S1P (Sigma-Aldrich) or a combination of 59 μg/ml of HS and 10 μM of S1P for 16 hours after enzyme degradation.
Immunostaining. RFPECs have high affinity to most antibodies that are available for performing immunocytochemistry. For heparan sulfate (HS), RFPEC monolayers were treated with 2% paraformaldehyde/1% glutaraldehyde in phosphate buffered saline (PBS) for fixation, treated with 2% goat serum in PBS to block non-specific ligands, and stained for three nights at 4° C. with a 1:100 10E4-epitope HS antibody (Amsbio).
As specified by the manufacturer, the HS antibody reacts with many types of heparan sulfate. The reactivity of the HS antibody is abolished after treatment with Hep III, indicating antibody specificity. […]

Assay [2] has as its system Cx-containing gap junctions of RFPEC. Briefly: Lucifer Yellow scratch-loading dye transfer assay (gap junction communication). It is filed as cell-based, rat. As for the experimental part:
as §1, §2
Dye transfer assay, fluorescence microscopy and image analysis. Gap junction functionality was assessed by loading Lucifer Yellow in RFPECs, using a scratch technique, and observing the extent of Lucifer Yellow transfer from loaded cells to neighboring cells (FIG. 7B). Lucifer Yellow has a molecular weight of 457.3 and can only enter cells via broken membranes or via gap junctions. The scratch loading technique involved pre-incubation of RFPECs (for 1 minute) with calcium- and magnesium-free Hanks' Balanced Salt Solution (HBSS; Life Technology) containing 5 mg/ml Lucifer Yellow dye (Life Technology). A 5-μm diameter tip scribe (Ted Pella, Inc, USA) was then used to carefully create a straight scratch in the RFPEC monolayer and to allow the dye to enter the scratched cells. After the dye was loaded, it spread via open gap junctions to adjacent intact cells, with the extent of Lucifer Yellow spread reaching a plateau by 10 minutes after loading. At that point, excess dye was washed out and RFPECs were imaged at 10× magnification (dry objective) using a Zeiss Observer Z1 fluorescence microscope. From recorded images of dye transfer after scratch loading, ImageJ randomly selected dye spread locations that would be quantified along the scratch. At those random locations, lines perpendicular to the scratch axis were drawn, and the intact fluorescent cells (scratched cells excluded) were counted. […]

As to heparan sulfate [HS], the “HS expression in GCX, result in words (FIG. 2 legend)” value in assay [1] (25 μIU/ml Hep III, HS 59 μg/ml, S1P 10 μM) was “significant recovery of HS back to baseline conditions”. Besides, the “HS coverage of cell surfaces” value in assay [1] (RFPEC, Hep III 2 hours, probed 16 hours after, with or without 59 μg/ml exogenous HS and/or 10 μM S1P for the 16 hours, mean±SEM) worked out at 65.58±2.26%. Further, the “Lucifer Yellow dye spread, neighboring cells receiving dye per scratch-loaded cell” value in assay [2] (RFPEC, Hep III, then 16 h with or without 59 μg/ml HS and/or 10 μM S1P, mean±SEM) turned out to be 1.03±0.07 cells. For the same substance, the “Lucifer Yellow dye transfer, result in words (FIG. 4 legend)” value in assay [2] (after Hep III, HS 59 μg/ml, S1P 10 μM) is reported as “Not much Lucifer Yellow dye transfer improvement”.

The values above are taken from patent US20200023001A1, “GlycoFix (Structurally And Functionally Repaired Endothelial Glycocalyx)” (Northeastern University, priority 2018, published 2020).
